From patent publication US7781406B2, “Production and use of the methotrexate-albumin conjugate as an immunosuppressive agent in GVHD” (Albupharm Heidelberg GmbH & Co. KG, priority 2004, dated 2010)

System: acute GVHD in F1 hybrid BN/Lew rats
Test: GVHD animal experiment: irradiated rats after transplantation of bone marrow cells and T lymphocytes
Format: in vivo
Settings: methotrexate-albumin 2 mg/kg i.p. day 0, 4, 8, 12, MTX at equieffective doses
Text: Animal experiments: (authorization No. LVL M-V310-4/7221.3-1.2-015/03 Landesveterinäramt Mecklenburg-Vorpommern Rostock)
Dr. M. Freund in Rostock University clinic under the direction of PD Dr G. Hartung and Dr D. Wolff. These entailed 20 female F1 hybrid BN/Lew rats receiving whole-body irradiation with 7.5 Gy (n=10) or 9 Gy (n=10) and then transplantation of 40 million bone marrow cells and 15 million T lymphocytes from female Lew rats.

For CN(Cc1cnc2nc(N)nc(N)c2n1)c1ccc(C(=O)N[C@@H](CCC(=O)O)C(=O)O)cc1 [MTX, 4-amino-4-deoxy-10-methylfolic acid], the side effects was “distinct side effect”.
